One assay has as its target T1, flt-3 (Homo sapiens, UniProt P36888).
T1 construct: baculovirus expressed human Flt-3 kinase domain R571-S993
T1 sequence (P36888 571-993): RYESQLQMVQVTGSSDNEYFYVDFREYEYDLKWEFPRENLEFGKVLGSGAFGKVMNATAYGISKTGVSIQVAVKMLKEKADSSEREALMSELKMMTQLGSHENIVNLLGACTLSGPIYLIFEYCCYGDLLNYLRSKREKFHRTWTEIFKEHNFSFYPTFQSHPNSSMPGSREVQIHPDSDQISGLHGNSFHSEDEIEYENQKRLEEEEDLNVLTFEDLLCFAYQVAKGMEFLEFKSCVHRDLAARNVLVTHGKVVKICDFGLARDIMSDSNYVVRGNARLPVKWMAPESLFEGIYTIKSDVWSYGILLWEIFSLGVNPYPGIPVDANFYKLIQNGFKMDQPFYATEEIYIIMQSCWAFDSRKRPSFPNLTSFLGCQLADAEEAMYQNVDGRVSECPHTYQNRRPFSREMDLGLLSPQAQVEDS
Briefly: flt-3 Luciferase-Coupled Chemiluminescent Kinase assay (LCCA). It counts as biochemical. The method, boiled down: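 Baculovirus-expressed human Flt-3 kinase domain (R571-S993, 5 nM) was reacted with 5 μM ATP and 3 μM poly-EY in Tris pH 7.5 buffer with MgCl2/MnCl2 for 3 h at ambient temperature. Remaining ATP was read by luciferase-luciferin chemiluminescence, with ATP consumption standardized to 25-45%, for IC50.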

The next assay deals with EGFR (Homo sapiens, UniProt P00533). Briefly: EGFR kinase inhibition assay. It counts as biochemical.
EGFR, sequence (P00533 25-1210, species assumed): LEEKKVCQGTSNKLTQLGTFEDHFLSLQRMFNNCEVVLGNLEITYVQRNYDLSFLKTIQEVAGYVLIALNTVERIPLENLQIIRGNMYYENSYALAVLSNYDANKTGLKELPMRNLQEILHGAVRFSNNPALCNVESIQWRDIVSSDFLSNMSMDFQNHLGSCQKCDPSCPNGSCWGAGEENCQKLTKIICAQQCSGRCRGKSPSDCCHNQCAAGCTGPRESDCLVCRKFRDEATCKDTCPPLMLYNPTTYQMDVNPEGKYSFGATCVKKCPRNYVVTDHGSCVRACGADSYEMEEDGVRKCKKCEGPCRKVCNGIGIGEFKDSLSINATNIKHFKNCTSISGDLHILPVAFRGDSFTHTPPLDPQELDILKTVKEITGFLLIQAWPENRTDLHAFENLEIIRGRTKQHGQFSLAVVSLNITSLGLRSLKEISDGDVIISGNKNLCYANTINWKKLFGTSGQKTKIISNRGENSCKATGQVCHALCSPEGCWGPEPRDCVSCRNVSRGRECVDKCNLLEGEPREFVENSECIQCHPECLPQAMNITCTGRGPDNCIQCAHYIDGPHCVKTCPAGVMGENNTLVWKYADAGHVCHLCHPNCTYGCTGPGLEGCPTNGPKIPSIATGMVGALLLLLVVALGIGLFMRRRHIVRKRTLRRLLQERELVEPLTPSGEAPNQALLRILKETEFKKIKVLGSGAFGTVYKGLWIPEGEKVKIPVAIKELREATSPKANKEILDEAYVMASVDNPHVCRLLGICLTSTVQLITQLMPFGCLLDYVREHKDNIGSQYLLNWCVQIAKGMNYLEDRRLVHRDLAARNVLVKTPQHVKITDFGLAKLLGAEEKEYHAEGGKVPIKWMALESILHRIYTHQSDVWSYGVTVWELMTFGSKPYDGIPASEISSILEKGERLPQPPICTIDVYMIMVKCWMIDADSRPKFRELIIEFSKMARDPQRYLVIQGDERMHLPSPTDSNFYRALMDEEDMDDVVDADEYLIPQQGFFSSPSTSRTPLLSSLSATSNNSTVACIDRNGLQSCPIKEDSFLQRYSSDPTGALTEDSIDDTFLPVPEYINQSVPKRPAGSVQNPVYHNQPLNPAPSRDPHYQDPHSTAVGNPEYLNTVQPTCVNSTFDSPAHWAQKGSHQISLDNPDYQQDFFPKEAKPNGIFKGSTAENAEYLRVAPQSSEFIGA
Another assay concerns the target c-Kit (Homo sapiens, UniProt P10721). Briefly: c-Kit biochemical assay (AlphaScreen). The method in brief: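 Kinase, compound, ATP and biotinylated poly(Glu,Tyr) 4:1 reacted 1 hr at ambient temperature; quenched with EDTA buffer (pH 7.4) containing streptavidin donor and anti-phosphotyrosine PY100 acceptor beads, incubated 16 hr, then AlphaScreen signal read to give IC50.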
For orientation: Alpha assays give light when donor and acceptor beads are brought close together.

Another assay deals with T2, EphB4 (Homo sapiens, UniProt P54760).
T2 sequence (P54760 16-987): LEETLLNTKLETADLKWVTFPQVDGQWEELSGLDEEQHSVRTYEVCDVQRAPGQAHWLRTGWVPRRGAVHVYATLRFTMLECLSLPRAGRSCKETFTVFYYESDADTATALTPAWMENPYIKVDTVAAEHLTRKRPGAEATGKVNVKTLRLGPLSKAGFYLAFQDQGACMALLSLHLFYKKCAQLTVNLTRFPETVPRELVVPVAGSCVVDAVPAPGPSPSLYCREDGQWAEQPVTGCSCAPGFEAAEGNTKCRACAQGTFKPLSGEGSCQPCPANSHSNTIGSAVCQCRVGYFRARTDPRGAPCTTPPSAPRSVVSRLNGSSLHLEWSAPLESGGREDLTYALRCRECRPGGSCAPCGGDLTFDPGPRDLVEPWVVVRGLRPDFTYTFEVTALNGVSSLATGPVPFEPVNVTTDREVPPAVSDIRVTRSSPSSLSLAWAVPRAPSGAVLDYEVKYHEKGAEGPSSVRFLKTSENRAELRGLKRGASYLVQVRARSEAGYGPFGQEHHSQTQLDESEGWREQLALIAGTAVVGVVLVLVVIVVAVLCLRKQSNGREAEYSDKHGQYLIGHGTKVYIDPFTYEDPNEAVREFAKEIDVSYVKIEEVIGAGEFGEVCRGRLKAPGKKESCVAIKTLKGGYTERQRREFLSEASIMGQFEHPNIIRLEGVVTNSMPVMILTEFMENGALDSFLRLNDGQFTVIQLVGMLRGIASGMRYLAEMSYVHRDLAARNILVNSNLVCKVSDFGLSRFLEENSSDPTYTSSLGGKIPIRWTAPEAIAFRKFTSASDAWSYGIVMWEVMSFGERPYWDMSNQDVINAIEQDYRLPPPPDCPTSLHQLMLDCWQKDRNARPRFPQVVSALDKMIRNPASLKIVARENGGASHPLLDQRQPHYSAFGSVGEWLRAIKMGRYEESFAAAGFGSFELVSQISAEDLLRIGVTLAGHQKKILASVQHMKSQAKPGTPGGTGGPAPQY
Briefly: EphB4 kinase inhibition assay. It is filed as biochemical. The method in brief:
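ATP near each kinase's KM; 10-point dose-response fitted to a four-parameter equation for IC50. Formats: γ33P-ATP transfer to plate-coated substrate (1.5-2.5 h, ambient, scintillation), luciferase-coupled ATP-consumption read-out (2-4 h, 25-45% ATP consumed), or AlphaScreen with biotinylated poly(Glu,Tyr) 4:1 (1 h).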

We go through five compounds from US8710038B2, “Pyrazole kinase modulators and methods of use” (Exelixis, Inc., priority 2004, dated 2014).

c-Kit, sequence (P10721 26-976): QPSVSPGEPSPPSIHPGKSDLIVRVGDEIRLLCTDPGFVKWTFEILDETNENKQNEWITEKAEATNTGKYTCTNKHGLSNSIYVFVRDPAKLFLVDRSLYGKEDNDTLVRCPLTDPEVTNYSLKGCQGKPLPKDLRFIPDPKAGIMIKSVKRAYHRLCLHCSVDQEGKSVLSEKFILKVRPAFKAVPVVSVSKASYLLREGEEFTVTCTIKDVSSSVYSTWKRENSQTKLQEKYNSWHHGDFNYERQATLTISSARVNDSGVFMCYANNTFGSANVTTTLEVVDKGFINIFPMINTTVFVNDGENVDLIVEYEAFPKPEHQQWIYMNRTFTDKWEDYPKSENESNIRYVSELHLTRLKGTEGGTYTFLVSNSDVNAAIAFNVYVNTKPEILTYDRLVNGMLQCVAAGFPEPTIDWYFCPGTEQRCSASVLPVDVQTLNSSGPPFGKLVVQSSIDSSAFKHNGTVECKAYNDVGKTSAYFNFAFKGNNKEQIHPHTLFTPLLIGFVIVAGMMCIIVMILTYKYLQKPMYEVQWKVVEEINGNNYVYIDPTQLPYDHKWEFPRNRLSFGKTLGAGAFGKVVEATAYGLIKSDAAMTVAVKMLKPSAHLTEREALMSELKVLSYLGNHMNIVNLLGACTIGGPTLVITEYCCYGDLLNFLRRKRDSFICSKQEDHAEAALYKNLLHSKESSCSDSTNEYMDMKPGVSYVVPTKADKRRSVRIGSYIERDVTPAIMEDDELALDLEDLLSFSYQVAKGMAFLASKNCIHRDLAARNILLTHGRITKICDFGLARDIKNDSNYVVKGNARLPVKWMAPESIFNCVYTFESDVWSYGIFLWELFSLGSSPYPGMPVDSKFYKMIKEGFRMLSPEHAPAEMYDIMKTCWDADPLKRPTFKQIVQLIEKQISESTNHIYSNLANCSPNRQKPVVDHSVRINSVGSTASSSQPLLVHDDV

For the compound `CN1CCN(c2cccc(-c3cc(/C=C/c4ccc(O)cc4)[nH]n3)c2)CC1` [Entry 58, 4-((E)-2-{3-[3-(4-methylpiperazin-1-yl)phenyl]-1H-pyrazol-5-yl}ethenyl)phenol], the IC50 is 50 to 500 nM against flt-3, more than 5000 nM against EGFR, 50 to 500 nM against c-Kit and more than 5000 nM on EphB4.

With `COc1cc(/C=C/c2cc(/C=C/c3ccc(F)cc3F)n[nH]2)ccc1O` [Entry 59, 4-((E)-2-{3-[(E)-2-(2,4-difluorophenyl)ethenyl]-1H-pyrazol-5-yl}ethenyl)-2-(methyloxy)phenol], the IC50 was less than 50 nM against flt-3, more than 5000 nM at EGFR, 50 to 500 nM on c-Kit and more than 5000 nM on EphB4.

With `Oc1ccc(/C=C/c2cc(-c3ccc(F)cc3)[nH]n2)cc1` [Entry 60, 4-{(E)-2-[5-(4-fluorophenyl)-1H-pyrazol-3-yl]ethenyl}phenol], the IC50 at flt-3 is less than 50 nM; at EGFR, more than 5000 nM; against c-Kit, 50 to 500 nM; against EphB4, more than 5000 nM.

Consider `Oc1ccc(/C=C/c2cc(-c3ccc(Cl)cc3)n[nH]2)cc1` [Entry 61, 4-{(E)-2-[3-(4-chlorophenyl)-1H-pyrazol-5-yl]ethenyl}phenol], for which the IC50 is 50 to 500 nM on flt-3, more than 5000 nM against EGFR, 500 to 5000 nM at c-Kit and more than 5000 nM at EphB4.

On to `O=C(Nc1ccccc1)Nc1ccc(-c2cc(-c3ccccc3)n[nH]2)cc1` [Entry 76, N-phenyl-N′-[4-(3-phenyl-1H-pyrazol-5-yl)phenyl]urea], for which the IC50 against flt-3 is 500 to 5000 nM; at EGFR, more than 5000 nM; against c-Kit it was 500 to 5000 nM; against EphB4 it was more than 5000 nM.

As usually defined, the IC50 is the midpoint of a concentration-inhibition curve. Low readings indicate greater potency in that assay, high ones weaker potency in that assay.
